This is an account of results in PubChem BioAssay AID1259407 (Chemical Carcinogenesis Research Information System (CCRIS), 2018).

The structures appear in SMILES notation. Calls of active or inactive are those of the source. The rule behind the calls is not given here.

The data set relates to CCRIS mutagenicity, Ames/micronucleus/aberration tests. The data set can be described thus: CCRIS mutagenicity studies.
Where [1] appears, read: Test System: AMES SALMONELLA TYPHIMURIUM, Strain/Indicator: TA98, Metabolic Activation: NONE, Method: STANDARD PLATE.
[2] abbreviates: Test System: AMES SALMONELLA TYPHIMURIUM, Strain/Indicator: TA100, Metabolic Activation: NONE, Method: STANDARD PLATE.

Take `Nc1c(Oc2ccccc2)cc(O)c2c1C(=O)c1ccccc1C2=O`: the mutagenic call was “active; positive” (Test System: AMES SALMONELLA TYPHIMURIUM, Strain/Indicator: TA98, Metabolic Activation: HAMSTER, LIVER, S-9, AROCLOR 1254 (10%), Method: STANDARD PLATE); “active; positive” under setting [1]; “active; positive” (Test System: AMES SALMONELLA TYPHIMURIUM, Strain/Indicator: TA98, Metabolic Activation: RAT, LIVER, S-9, AROCLOR 1254 (10%), Method: STANDARD PLATE); “inactive; negative” (Test System: AMES SALMONELLA TYPHIMURIUM, Strain/Indicator: TA100, Metabolic Activation: HAMSTER, LIVER, S-9, AROCLOR 1254 (10%), Method: STANDARD PLATE); “inactive; negative” under setting [2]; “inactive; negative” (Test System: AMES SALMONELLA TYPHIMURIUM, Strain/Indicator: TA100, Metabolic Activation: RAT, LIVER, S-9, AROCLOR 1254 (10%), Method: STANDARD PLATE). Moreover, the mutagenic call (Test System: MOUSE LYMPHOMA, Strain/Indicator: L5178Y (TK+/TK-), Metabolic Activation: RAT, LIVER, S-9, AROCLOR 1254, Method: SUSPENSION/PLATE) is “inactive; negative. reevaluation of results: negative”.

`CCCCOCCOCCOCc1cc2c(cc1CCC)OCO2`: the mutagenic call runs as follows: (End Point: IN VITRO CHROMOSOMAL ABERRATIONS, Test System: CHINESE HAMSTER OVARY CELLS, Metabolic Activation: NONE) “inactive; negative; precipitation occurred at 287 ug/ml”; (End Point: IN VITRO CHROMOSOMAL ABERRATIONS, Test System: CHINESE HAMSTER OVARY CELLS, Metabolic Activation: RAT, LIVER, S-9, AROCLOR 1254) “inactive; negative; precipitation occurred at 496 ug/ml”; (Test System: AMES SALMONELLA TYPHIMURIUM, Strain/Indicator: TA97, Metabolic Activation: NONE, Method: PREINCUBATION) “inactive; negative”; (Test System: AMES SALMONELLA TYPHIMURIUM, Strain/Indicator: TA97, Metabolic Activation: RAT, LIVER, S-9, AROCLOR 1254, Method: PREINCUBATION) “inactive; negative”; under setting [1], “inactive; negative”; (Test System: AMES SALMONELLA TYPHIMURIUM, Strain/Indicator: TA98, Metabolic Activation: RAT, LIVER, S-9, AROCLOR 1254, Method: STANDARD PLATE) “inactive; negative”. The mutagenic call is, setting by setting: under setting [2], “inactive; negative”; (Test System: AMES SALMONELLA TYPHIMURIUM, Strain/Indicator: TA100, Metabolic Activation: RAT, LIVER, S-9, AROCLOR 1254, Method: STANDARD PLATE) “inactive; negative”; (Test System: AMES SALMONELLA TYPHIMURIUM, Strain/Indicator: TA102, Metabolic Activation: NONE, Method: PREINCUBATION) “inactive; negative”; (Test System: AMES SALMONELLA TYPHIMURIUM, Strain/Indicator: TA102, Metabolic Activation: RAT, LIVER, S-9, AROCLOR 1254, Method: PREINCUBATION) “inactive; negative”; (Test System: AMES SALMONELLA TYPHIMURIUM, Strain/Indicator: TA1535, Metabolic Activation: NONE, Method: STANDARD PLATE) “inactive; negative”; (Test System: AMES SALMONELLA TYPHIMURIUM, Strain/Indicator: TA1535, Metabolic Activation: RAT, LIVER, S-9, AROCLOR 1254, Method: STANDARD PLATE) “inactive; negative”. The mutagenic call by setting is: (Test System: AMES SALMONELLA TYPHIMURIUM, Strain/Indicator: TA1537, Metabolic Activation: NONE, Method: STANDARD PLATE) “inactive; negative”; (Test System: AMES SALMONELLA TYPHIMURIUM, Strain/Indicator: TA1537, Metabolic Activation: RAT, LIVER, S-9, AROCLOR 1254, Method: STANDARD PLATE) “inactive; negative”; (Test System: AMES SALMONELLA TYPHIMURIUM, Strain/Indicator: TA1538, Metabolic Activation: NONE, Method: STANDARD PLATE) “inactive; negative”; (Test System: AMES SALMONELLA TYPHIMURIUM, Strain/Indicator: TA1538, Metabolic Activation: RAT, LIVER, S-9, AROCLOR 1254, Method: STANDARD PLATE) “inactive; negative”; (Test System: CHINESE HAMSTER OVARY, Strain/Indicator: CHO-K1-BH4 (HGPRT)/6-THIOGUANINE, Metabolic Activation: NONE) “inactive; negative”; (Test System: CHINESE HAMSTER OVARY, Strain/Indicator: CHO-K1-BH4 (HGPRT)/6-THIOGUANINE, Metabolic Activation: RAT, LIVER, S-9, AROCLOR 1254) “inactive; negative”. The mutagenic call (Test System: UDS HUMAN HEPATOCYTES, Strain/Indicator: THY INCORP, Metabolic Activation: NONE, Method: AUTORADIOGRAPHY) was “inactive; negative” and the mutagenic call (Test System: UDS RAT HEPATOCYTES, Strain/Indicator: THY INCORP, Metabolic Activation: NONE, Method: AUTORADIOGRAPHY) is “inactive; negative”.

As for `[Cl][Pd-2]([Cl])([Cl])([Cl])([Cl])[Cl]`, the mutagenic call by setting is: (Test System: AMES SALMONELLA TYPHIMURIUM, Strain/Indicator: TA97A, Metabolic Activation: NONE, Method: STANDARD PLATE) “inactive; negative”; (Test System: AMES SALMONELLA TYPHIMURIUM, Strain/Indicator: TA97A, Metabolic Activation: RAT, LIVER, S-9, PHENOBARBITAL AND 5,6-BENZOFLAVONE, Method: STANDARD PLATE) “inactive; negative”; (Test System: AMES SALMONELLA TYPHIMURIUM, Strain/Indicator: TA97A, Metabolic Activation: RAT, LIVER, S-9, PHENOBARBITAL AND BETA-NAPHTHOFLAVONE, Method: STANDARD PLATE) “inactive; negative”; under setting [1], “inactive; negative”; (Test System: AMES SALMONELLA TYPHIMURIUM, Strain/Indicator: TA98, Metabolic Activation: RAT, LIVER, S-9, PHENOBARBITAL AND 5,6-BENZOFLAVONE, Method: STANDARD PLATE) “inactive; negative”; (Test System: AMES SALMONELLA TYPHIMURIUM, Strain/Indicator: TA98, Metabolic Activation: RAT, LIVER, S-9, PHENOBARBITAL AND BETA-NAPHTHOFLAVONE, Method: STANDARD PLATE) “inactive; negative”. For the same compound, the mutagenic call by setting is: under setting [2], “inactive; negative”; (Test System: AMES SALMONELLA TYPHIMURIUM, Strain/Indicator: TA100, Metabolic Activation: RAT, LIVER, S-9, PHENOBARBITAL AND 5,6-BENZOFLAVONE, Method: STANDARD PLATE) “inactive; negative”; (Test System: AMES SALMONELLA TYPHIMURIUM, Strain/Indicator: TA100, Metabolic Activation: RAT, LIVER, S-9, PHENOBARBITAL AND BETA-NAPHTHOFLAVONE, Method: STANDARD PLATE) “inactive; negative”; (Test System: AMES SALMONELLA TYPHIMURIUM, Strain/Indicator: TA102, Metabolic Activation: NONE, Method: STANDARD PLATE) “inactive; negative”; (Test System: AMES SALMONELLA TYPHIMURIUM, Strain/Indicator: TA102, Metabolic Activation: RAT, LIVER, S-9, PHENOBARBITAL AND 5,6-BENZOFLAVONE, Method: STANDARD PLATE) “inactive; negative”; (Test System: AMES SALMONELLA TYPHIMURIUM, Strain/Indicator: TA102, Metabolic Activation: RAT, LIVER, S-9, PHENOBARBITAL AND BETA-NAPHTHOFLAVONE, Method: STANDARD PLATE) “inactive; negative”.

Turning to `COC(=O)[C@H]1CS[C@H]2C(Cl)=C(Cl)C(=O)N12`, under setting [2], the mutagenic call is “active; positive”.

For `C[C@H](N)C(=O)c1ccccc1`, for the setting “End Point: In vivo chromosomal aberrations, Test System: Blood from cardiac puncture, Species: Rat, Strain/Sex: Sprague-Dawley/Male, Route: Oral”, the mutagenic call was “active; positive (high dose significantly different from control and low dose)”.
